The source of these data is article PMC12442099 (ACS Infectious Diseases, 2025).

What all share (assay type): cell-based
Assay [1] deals with SOS stress response in E. coli MC4100. Kind of assay: SOS stress reporter assay (PlexA-mNG). Conditions: EC80 compound concentrations (Fig. 5A); Fig. S4. The source says:
To examine the potential link between DNA gyrase inhibition, SOS stress, and CE stress, we designed a fluorescent SOS reporter plasmid, similar to the reporter plasmids used to study CE stresses.
5 (A) SOS stress induced by different compounds at EC80 concentrations in E. coli MC4100. (B) Rcs stress of different compounds at EC80 concentrations in E. coli MC4100. (C) Rcs stress of the nonquinolone gyrase inhibitor LEI-800 in TOP10F’. (D) Rcs stress induced by mitomycin C in E. coli TOP10F’ and E. coli MC4100. Graphs show fold change in fluorescence adjusted for bacterial growth (OD600). Error bars indicate standard deviation of triplicates. Data are representative of two independent experiments with similar results.
On the technique in general: A reporter such as luciferase makes a cellular process visible.

The subject of assay [2] is Rcs cell envelope stress response in Escherichia coli. Kind of assay: Rcs stress reporter assay, HTS format, dose-response curves. The conditions noted are these: for Emax: read-out: Max. effect (%); for EC50: read-out: pEC50 (converted). As for the experimental part: We adapted the reporter assay based on the Rcs stress system for HTS in a screening program at the ELF as the first bacterial phenotypic screen used in this setting. , The assay was performed in a 1536-well format using 25 μM PMBN as a reference (set at 100% effect).
The ELF screened their extensive and diverse library consisting of >500,000 small molecules at a concentration of 10 μM. The assay window (S/B) and Z’ values remained stable (2.0–15.2 and 0.50–0.90, respectively) throughout the screening campaign. The detailed standard screening procedure of the ELF is outlined elsewhere. An overview of the selection process of the screening campaign performed here is outlined in Figure . Initially, 340 compounds with an effect ≥20% of the reference compound PMBN were considered biologically active. Usually, up to 1% of the input library is selected for confirmatory, dose–response, orthogonal and deselection assays. Because the number of biological actives identified in this assay was well below the 1% limit, no orthogonal assays were performed. Instead, all compounds were reordered and tested as dilution series in the Rcs assay to generate dose–response curves (DRCs). Each compound’s pEC50 (−log of EC50, defined as the concentration (mol/L) at which 50% effect is achieved) was determined, and compounds with a pEC50 ≥ 4.7 were selected for further analysis. Next, the compounds were subjected to a mammalian cell-based cytotoxicity assay to exclude toxic compounds that may have a generic effect on membrane integrity. Compounds that reduced mammalian cell viability by 50% were considered cytotoxic. The qualified hit list (QHL) was then generated following triaging based on LC-MS analysis and pEC50 values.
Overnight cultures (ONCs) were prepared by inoculating 5 mL medium from glycerol stocks and incubating the culture for 16–18 h. ONCs were then diluted to an OD600 of 0.05 and grown until an OD600 of 0.3–0.4 was reached.
Assay robustness was confirmed by testing its sensitivity to assay-interfering agents, including colored, aggregating and fluorescent compounds. […] For HTS, bacteria were diluted 50x in prewarmed medium. Fifteen nL of assay compounds (10 μM), DMSO (0.25%), or the reference compound polymyxin B nonapeptide (PMBN) at 25 μM were added to 1536 well plates. Next, 6 μL culture aliquots were added to assay plates containing compounds. Plates were briefly centrifuged for 1 min at 150 x g. Plates were incubated at 37 °C with high humidity and fluorescence (Ex./Em. λ: 485/528 nm) was measured at T = 0 and T = 150 min using a ClarioStar plate reader (BMG Labtech). For data analysis, T = 0 values were subtracted from T = 150 values to calculate Z-score and % effect compared to the reference compound.
Dose–response curves of the 340 initial active compounds were determined following the preparation of serial dilutions (20 nM–20 μM; 7 points, √10). The % effect compared to the reference compound PMBN was calculated and plotted for each compound dilution. The resulting plots were used to calculate pEC50 (-log(EC50), with EC50 being determined as the concentration at which a 50% effect is observed).

Another assay has as its system E. coli TOP10F’ cells. Kind of assay: Phase contrast and fluorescence microscopy of cell morphology. Conditions: EC50 concentrations, 4 h, vs DMSO. The source says:
DMSO-treated control cells had normal rod-shaped morphology. Drastic changes to cell and membrane morphology were observed following compound treatment.
Cells were stained with Nile red to visualize membranes and Hoechst to label DNA. a: Phase Contrast; b: Nile Red; c: Hoechst; d: overlay of Nile Red and Hoechst. White arrows indicate differences observed between control and compound treated cells, such as different localization and increased number of bright, lipid spots, vesicle-like bulges, apparent leakage of lipid contents and condensed DNA. Pictures are representative of at least 5 images taken per sample, during two independent experiments with similar results. Bottom panels show (B) cell length or (C) cell area after treatment with DMSO or EC50 concentrations of A2 or B1. Cells were analyzed after 4h of compound treatment. Data are representative of two independent experiments with similar results. Data were analyzed using a One-Way ANOVA with Kruskal–Wallis test for multiple comparisons. **** = p < 0.0001. Cells were counted from 3 to 5 pictures of each condition (DMSO: n = 1773, A2: n = 1920, B1: n = 555). Data are representative of two individual experiments with similar results.
Cells were collected at 4600g for 5 min. […]
Images were processed using ImageJ. Cell length and width were quantified using Oufti. Image data were analyzed using GraphPad Prism 10.3.1. […]

With `O=C1COc2ccc(CNC3CCN(CC4Cc5c(F)cc(F)c6ccc(=O)n4c56)CC3)nc2N1` (centres unmarked) [B1], the “SOS stress induction in MC4100” value in assay [1] is listed as “induced SOS stress at similar levels as the FQ lomefloxacin”. In assay [2], the Emax was found to be 53.3% and the EC50 is 282 nM. Further, the cell length entry in the assay on E. coli TOP10F’ cells was “significantly increased the overall average length of the cells”.

As to `CC(C)(C)n1cc(C(=O)O)c(=O)c2cc(F)c(N3CC4CC3CN4)nc21` (centres unmarked) [A2], in assay [1], the “SOS stress induction in MC4100” value was “induced SOS stress at similar levels as the FQ lomefloxacin”. Further, in assay [2], the Emax came out at 26.6% and the EC50 was 107 nM. The cell length result in the assay with E. coli TOP10F’ cells is reported as “significantly increased the overall average length of the cells”.
